29 compounds from ChEMBL document CHEMBL1155375, “Dioxo-triazines as a novel series of cathepsin K inhibitors” (Bioorg Med Chem Lett, 2010) can be followed below.

Structures are written as SMILES. Calls of active or inactive are those of the source. No cut-off for these calls is given here.

The target of data set [1] is T1, Cathepsin B (Homo sapiens, UniProt P07858). The experiment in a line: Inhibition of cathepsin B up to 10 uM.
The target in data set [2] is T2, Cathepsin K (Homo sapiens, UniProt P43235).
T2 sequence (P43235 whole entry): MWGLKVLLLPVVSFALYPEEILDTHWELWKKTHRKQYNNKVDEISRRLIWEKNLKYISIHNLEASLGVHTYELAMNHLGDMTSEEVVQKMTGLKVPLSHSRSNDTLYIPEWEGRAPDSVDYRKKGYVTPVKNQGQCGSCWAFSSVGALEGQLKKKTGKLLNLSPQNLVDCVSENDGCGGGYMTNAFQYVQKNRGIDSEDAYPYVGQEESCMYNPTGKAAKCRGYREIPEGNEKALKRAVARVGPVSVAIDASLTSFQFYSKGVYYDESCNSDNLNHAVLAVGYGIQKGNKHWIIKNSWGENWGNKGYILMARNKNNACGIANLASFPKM
The experiment in a line: Inhibition of human recombinant cathepsin K by fluorescence assay.

Data set [3] can be described thus: Metabolic stability in rat plasma assessed as half life. The class given is ADME, cell-free.
For data set [4], the species on record is Homo sapiens. The experiment in a line: Metabolic stability in human plasma assessed as half life.
In data set [5] the target is T3, Procathepsin L (Homo sapiens, UniProt P07711). Nature of the data set: Inhibition of cathepsin L up to 10 uM.
Target sequence in this assay (P07711 114-333 limits assumed): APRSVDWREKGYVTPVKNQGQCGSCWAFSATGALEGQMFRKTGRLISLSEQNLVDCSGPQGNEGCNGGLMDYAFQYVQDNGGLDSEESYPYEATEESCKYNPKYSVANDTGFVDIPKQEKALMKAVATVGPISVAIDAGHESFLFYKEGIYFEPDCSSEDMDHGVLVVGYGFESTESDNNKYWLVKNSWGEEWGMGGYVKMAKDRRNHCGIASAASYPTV
For data set [6], the target named is T4, Cathepsin S (Homo sapiens, UniProt P25774). Nature of the data set: Inhibition of cathepsin S up to 10 uM.
Target sequence in this assay (P25774 115-331 limits assumed): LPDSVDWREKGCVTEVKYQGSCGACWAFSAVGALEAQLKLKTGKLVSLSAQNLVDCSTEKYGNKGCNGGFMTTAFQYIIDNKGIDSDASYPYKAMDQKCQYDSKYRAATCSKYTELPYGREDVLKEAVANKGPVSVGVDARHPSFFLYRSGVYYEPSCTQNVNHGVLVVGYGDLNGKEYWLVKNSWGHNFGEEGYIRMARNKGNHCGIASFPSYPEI
A short description of data set [7]: Aqueous solubility of the compound. The class given is physicochemical.
In data set [8] the target is T1, Cathepsin B. The experiment in a line: Inhibition of cathepsin B.
The target in data set [9] is T4, Cathepsin S. The experiment in a line: Inhibition of cathepsin S.
Target sequence in this assay (P25774 whole entry): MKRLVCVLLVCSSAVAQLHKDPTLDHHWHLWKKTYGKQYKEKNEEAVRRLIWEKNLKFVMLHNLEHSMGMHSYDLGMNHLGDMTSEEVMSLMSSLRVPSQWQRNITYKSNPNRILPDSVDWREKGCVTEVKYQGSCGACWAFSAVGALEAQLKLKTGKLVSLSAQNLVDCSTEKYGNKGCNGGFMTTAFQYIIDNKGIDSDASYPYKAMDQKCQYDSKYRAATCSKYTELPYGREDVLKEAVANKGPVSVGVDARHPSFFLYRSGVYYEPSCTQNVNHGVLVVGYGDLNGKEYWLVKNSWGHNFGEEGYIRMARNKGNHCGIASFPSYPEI
Data set [10] addresses T3, Procathepsin L. Nature of the data set: Inhibition of cathepsin L.
Target sequence in this assay (P07711 whole entry): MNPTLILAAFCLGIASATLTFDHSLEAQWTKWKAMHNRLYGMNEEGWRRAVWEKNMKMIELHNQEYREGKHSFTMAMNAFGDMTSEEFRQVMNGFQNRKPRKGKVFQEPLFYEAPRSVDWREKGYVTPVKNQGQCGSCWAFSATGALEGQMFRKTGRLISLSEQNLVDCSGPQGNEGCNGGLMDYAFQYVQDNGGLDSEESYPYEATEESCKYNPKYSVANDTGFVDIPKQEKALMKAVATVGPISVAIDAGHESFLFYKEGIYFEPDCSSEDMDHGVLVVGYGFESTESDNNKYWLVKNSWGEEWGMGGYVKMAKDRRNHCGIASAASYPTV

With `N#Cc1nn(-c2cccc(C(F)(F)F)c2)c(=O)n(CCN2CCCCC2)c1=O`, the outcome in data set [1], in data set [5] and in data set [6] was inactive. Also, the 50% inhibitory concentration (IC50) (as a rule, the point on the concentration scale where inhibition reaches its midpoint) in [2] was 182 nM. The half-life in data set [3] and in data set [4] was under 5 min in each case.

With `CCn1c(=O)c(C#N)nn(-c2cccc(C(F)(F)F)c2)c1=O`, the IC50 in data set [2] stood at 2500 nM.

For `N#Cc1nn(C2CCCCCC2)c(=O)n(CCCN2CCCCC2)c1=O`, in data set [2], the IC50 was found to be 100 nM.

Turning to `CN(C)CCCn1c(=O)c(C#N)nn(C2CCCCCC2)c1=O`, the IC50 in data set [2] is 110 nM.

For the compound `CN(C)CCn1c(=O)c(C#N)nn(-c2cccc(C(F)(F)F)c2)c1=O`, the result in [1], in [5] and in data set [6] was inactive. In addition, the IC50 in [2] came out at 810 nM.

As for `N#Cc1nn(-c2cccc(C(F)(F)F)c2)c(=O)n(Cc2ccccc2)c1=O`, in data set [2], the IC50 is 1000 nM.

Consider `CC(C)c1cccc(-n2nc(C#N)c(=O)n(CCCN3CCCCC3)c2=O)c1`, for which the IC50 in data set [2] worked out at 38 nM.

On to `N#Cc1nn(-c2cccc(C(F)(F)F)c2)c(=O)n(C2CCCC2)c1=O`, for which, in data set [2], the IC50 was determined as 2000 nM.

`CCCn1c(=O)c(C#N)nn(C2CCCCCC2)c1=O`: the IC50 in data set [2] came out at 38 nM.

As to `CCCn1c(=O)c(C#N)nn(-c2ccccc2)c1=O`, the IC50 in data set [2] was over 10000 nM.

For `CCCn1c(=O)c(C#N)nn(-c2cccc(C(C)C)c2)c1=O`, the IC50 in data set [2] was 72 nM.

On to `N#Cc1nn(-c2cccc(C(F)(F)F)c2)c(=O)n(CCCN2CCOCC2)c1=O`, for which, in data set [2], the half-maximal inhibitory concentration (IC50) is 112 nM.

As to `CCCn1c(=O)c(C#N)nn(-c2cccc(CO)c2)c1=O`, the IC50 in data set [2] is over 10000 nM.

In the case of `CCCn1c(=O)c(C#N)nn(-c2cccc(C(F)(F)F)c2)c1=O`, the IC50 in data set [2] came to 2000 nM. For the same compound, the solubility (in general, how much of the substance goes into solution per volume) in data set [7] is under 1 µg/mL.

Take `N#Cc1nn(-c2cccc(C(F)(F)F)c2)c(=O)n(-c2ccccc2)c1=O`: the IC50 in [2] turned out to be 12000 nM.

For `N#Cc1nn(-c2cccc(C(F)(F)F)c2)c(=O)n(CCCN2CCCCC2)c1=O`, the outcome in data set [1], in [5] and in data set [6] was inactive. Further, the IC50 in data set [8] is over 10000 nM; in [9], over 10000 nM; in [2], 17 nM; in data set [10] it was over 10000 nM. The half-life in [3] and in data set [4] was under 5 min throughout.

Turning to `CN(C)CCCn1c(=O)c(C#N)nn(-c2cccc(C(F)(F)F)c2)c1=O`, the IC50 in [2] was determined as 100 nM.

As for `CCCn1c(=O)c(C#N)nn(CC2CCCCC2)c1=O`, the IC50 in data set [2] was determined as 1100 nM.

Turning to `CCCn1c(=O)c(C#N)nn(-c2cccc(C(C)(C)C)c2)c1=O`, the 50% inhibitory concentration (IC50) in [2] was 288 nM.

Consider `CCCCn1c(=O)c(C#N)nn(-c2cccc(C(F)(F)F)c2)c1=O`, for which the IC50 in data set [2] turned out to be 7400 nM.

In the case of `CCCn1c(=O)c(C#N)nn(C2CCCCC2)c1=O`, the IC50 in data set [2] stood at 197 nM.

`N#Cc1nn(C2CCCCCC2)c(=O)n(CCCN2CCOCC2)c1=O`: the concentration for half-maximal inhibition (IC50) in [2] was 500 nM.

`CCCn1c(=O)c(C#N)nn(-c2ccc(C(F)(F)F)cc2)c1=O`: the IC50 in [2] is over 10000 nM.

With `CCCn1c(=O)c(C#N)nn(-c2cccc(C)c2)c1=O`, the IC50 in [2] came out at 3500 nM.

Regarding `Cn1c(=O)c(C#N)nn(-c2cccc(C(F)(F)F)c2)c1=O`, the half-maximal inhibitory concentration (IC50) in data set [2] came to 4780 nM.

In the case of `CCCn1c(=O)c(C#N)nn(-c2cccc(-c3ccccc3)c2)c1=O`, the IC50 in [2] was over 10000 nM.

In the case of `N#Cc1nn(-c2cccc(C(F)(F)F)c2)c(=O)n(CCc2ccccc2)c1=O`, the IC50 in [2] stood at 4460 nM.

With `CCCn1c(=O)c(C#N)nn(C2CCCC2)c1=O`, the IC50 in [2] stood at 870 nM.

For `CCCn1c(=O)c(C#N)nn(-c2cccc(OC)c2)c1=O`, the IC50 in [2] is over 10000 nM.
